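1) Cells in 96-well plates. 2) Compound, 48 h, 5 concentrations. 3) Linear interpolation between surrounding doses. 4) Unreached endpoint = highest concentration. TGI: total growth inhibition.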
Tests used:
Test in all cases: inhibition of tumour cell growth, NCI panel, 48 h
U251 CNS = system: U251 CNS
MOLT-4 leukemia = system: MOLT-4 leukemia
HT29 colon = system: HT29 colon
HOP-92 NSCLC = system: HOP-92 NSCLC
SF-268 CNS = system: SF-268 CNS
UACC-257 melanoma = system: UACC-257 melanoma
XF 498 CNS = system: XF 498 CNS
MALME-3M melanoma = system: MALME-3M melanoma
SW-620 colon = system: SW-620 colon
LXFL 529 NSCLC = system: LXFL 529 NSCLC
NCI-H23 lung = system: NCI-H23 lung
SNB-75 CNS = system: SNB-75 CNS
SK-MEL-5 melanoma = system: SK-MEL-5 melanoma
786-0 renal = system: 786-0 renal
SK-OV-3 ovarian = system: SK-OV-3 ovarian
RPMI-8226 leukemia = system: RPMI-8226 leukemia
HL-60(TB) leukemia = system: HL-60(TB) leukemia
SF-539 CNS = system: SF-539 CNS
SF-295 CNS = system: SF-295 CNS
CCRF-CEM leukemia = system: CCRF-CEM leukemia
OVCAR-3 ovarian = system: OVCAR-3 ovarian
SK-MEL-2 melanoma = system: SK-MEL-2 melanoma
KM20L2 colon = system: KM20L2 colon
KM12 colon = system: KM12 colon
UACC-62 melanoma = system: UACC-62 melanoma
M14 melanoma = system: M14 melanoma
NCI-H522 lung = system: NCI-H522 lung
EKVX NSCLC = system: EKVX NSCLC
COLO 205 colon = system: COLO 205 colon
A549 NSCLC = system: A549 NSCLC
RXF-631 renal = system: RXF-631 renal
OVCAR-5 ovarian = system: OVCAR-5 ovarian
NCI-H460 lung = system: NCI-H460 lung
DMS 114 small cell lung = system: DMS 114 small cell lung
SNB-19 CNS = system: SNB-19 CNS
SN12C renal = system: SN12C renal
UO-31 renal = system: UO-31 renal
IGROV1 ovarian = system: IGROV1 ovarian
HCT-15 colon = system: HCT-15 colon
HCC-2998 colon = system: HCC-2998 colon
SNB-78 CNS = system: SNB-78 CNS
HOP-18 NSCLC = system: HOP-18 NSCLC
DLD-1 colon = system: DLD-1 colon
RXF 393 renal = system: RXF 393 renal
OVCAR-8 ovarian = system: OVCAR-8 ovarian
A498 renal = system: A498 renal
NCI-H226 lung = system: NCI-H226 lung
ACHN renal = system: ACHN renal
SK-MEL-28 melanoma = system: SK-MEL-28 melanoma
CAKI-1 renal = system: CAKI-1 renal
K-562 leukemia = system: K-562 leukemia
LOX IMVI melanoma = system: LOX IMVI melanoma
DMS 273 small cell lung = system: DMS 273 small cell lung
OVCAR-4 ovarian = system: OVCAR-4 ovarian
HCT-116 colon = system: HCT-116 colon
HOP-62 NSCLC = system: HOP-62 NSCLC
SR leukemia = system: SR leukemia
TK-10 renal = system: TK-10 renal
M19-MEL melanoma = system: M19-MEL melanoma

CC(=O)OC1COC(n2c(=S)n(-c3ccccc3)c(=O)c3ccccc32)C(OC(C)=O)C1OC(C)=O (stereo not drawn)
TGI (U251 CNS): > 100 µM | TGI (MOLT-4 leukemia): > 100 µM | TGI (HT29 colon): > 100 µM | TGI (HOP-92 NSCLC): > 100 µM | TGI (SF-268 CNS): > 100 µM | TGI (UACC-257 melanoma): > 100 µM | TGI (XF 498 CNS): > 100 µM | TGI (MALME-3M melanoma): > 100 µM | TGI (SW-620 colon): > 100 µM | TGI (LXFL 529 NSCLC): > 100 µM | TGI (NCI-H23 lung): > 100 µM | TGI (SNB-75 CNS): > 100 µM | TGI (SK-MEL-5 melanoma): > 100 µM | TGI (786-0 renal): > 100 µM | TGI (SK-OV-3 ovarian): > 100 µM | TGI (RPMI-8226 leukemia): > 100 µM | TGI (HL-60(TB) leukemia): > 100 µM | TGI (SF-539 CNS): > 100 µM | TGI (SF-295 CNS): 85.7 µM | TGI (CCRF-CEM leukemia): > 100 µM | TGI (OVCAR-3 ovarian): > 100 µM | TGI (SK-MEL-2 melanoma): > 100 µM | TGI (KM20L2 colon): > 100 µM | TGI (KM12 colon): > 100 µM | TGI (UACC-62 melanoma): > 100 µM | TGI (M14 melanoma): > 100 µM | TGI (NCI-H522 lung): > 100 µM | TGI (EKVX NSCLC): > 100 µM | TGI (COLO 205 colon): > 100 µM | TGI (A549 NSCLC): > 100 µM | TGI (RXF-631 renal): > 100 µM | TGI (OVCAR-5 ovarian): > 100 µM | TGI (NCI-H460 lung): > 100 µM | TGI (DMS 114 small cell lung): > 100 µM | TGI (SNB-19 CNS): > 100 µM | TGI (SN12C renal): > 100 µM | TGI (UO-31 renal): > 100 µM | TGI (IGROV1 ovarian): > 100 µM | TGI (HCT-15 colon): > 100 µM | TGI (HCC-2998 colon): > 100 µM | TGI (SNB-78 CNS): > 100 µM | TGI (HOP-18 NSCLC): > 100 µM | TGI (DLD-1 colon): > 100 µM | TGI (RXF 393 renal): > 100 µM | TGI (OVCAR-8 ovarian): > 100 µM | TGI (A498 renal): > 100 µM | TGI (NCI-H226 lung): > 100 µM | TGI (ACHN renal): > 100 µM | TGI (SK-MEL-28 melanoma): > 100 µM | TGI (CAKI-1 renal): > 100 µM | TGI (K-562 leukemia): > 100 µM | TGI (LOX IMVI melanoma): > 100 µM | TGI (DMS 273 small cell lung): > 100 µM | TGI (OVCAR-4 ovarian): > 100 µM | TGI (HCT-116 colon): > 100 µM | TGI (HOP-62 NSCLC): > 100 µM

ClC(Cl)[Si]12OCCN(CCO1)CCO2
TGI (U251 CNS): > 100 µM | TGI (MOLT-4 leukemia): > 100 µM | TGI (HT29 colon): > 100 µM | TGI (HOP-92 NSCLC): > 100 µM | TGI (SF-268 CNS): > 100 µM | TGI (UACC-257 melanoma): > 100 µM | TGI (SR leukemia): > 100 µM | TGI (TK-10 renal): > 100 µM | TGI (MALME-3M melanoma): > 100 µM | TGI (SW-620 colon): > 100 µM | TGI (LXFL 529 NSCLC): > 100 µM | TGI (NCI-H23 lung): > 100 µM | TGI (SNB-75 CNS): > 100 µM | TGI (SK-MEL-5 melanoma): > 100 µM | TGI (786-0 renal): > 100 µM | TGI (SK-OV-3 ovarian): > 100 µM | TGI (RPMI-8226 leukemia): > 100 µM | TGI (HL-60(TB) leukemia): > 100 µM | TGI (SF-539 CNS): > 100 µM | TGI (SF-295 CNS): > 100 µM | TGI (CCRF-CEM leukemia): > 100 µM | TGI (OVCAR-3 ovarian): > 100 µM | TGI (SK-MEL-2 melanoma): > 100 µM | TGI (KM12 colon): > 100 µM | TGI (UACC-62 melanoma): > 100 µM | TGI (NCI-H522 lung): > 100 µM | TGI (COLO 205 colon): > 100 µM | TGI (A549 NSCLC): > 100 µM | TGI (RXF-631 renal): > 100 µM | TGI (OVCAR-5 ovarian): > 100 µM | TGI (NCI-H460 lung): > 100 µM | TGI (DMS 114 small cell lung): > 100 µM | TGI (SNB-19 CNS): > 100 µM | TGI (SN12C renal): > 100 µM | TGI (UO-31 renal): > 100 µM | TGI (IGROV1 ovarian): > 100 µM | TGI (HCC-2998 colon): > 100 µM | TGI (SNB-78 CNS): > 100 µM | TGI (HOP-18 NSCLC): > 100 µM | TGI (DLD-1 colon): > 100 µM | TGI (RXF 393 renal): > 100 µM | TGI (OVCAR-8 ovarian): > 100 µM | TGI (A498 renal): > 100 µM | TGI (ACHN renal): > 100 µM | TGI (SK-MEL-28 melanoma): > 100 µM | TGI (CAKI-1 renal): > 100 µM | TGI (K-562 leukemia): > 100 µM | TGI (DMS 273 small cell lung): > 100 µM | TGI (HCT-116 colon): > 100 µM

CC(=O)NC(CC(C)C)C(=O)NC(Cc1ccccc1)C(=S)N1CCCC1 (stereo not drawn)
TGI (U251 CNS): > 100 µM | TGI (MOLT-4 leukemia): > 100 µM | TGI (HT29 colon): > 100 µM | TGI (HOP-92 NSCLC): > 100 µM | TGI (SF-268 CNS): > 100 µM | TGI (UACC-257 melanoma): > 100 µM | TGI (XF 498 CNS): > 100 µM | TGI (TK-10 renal): > 100 µM | TGI (MALME-3M melanoma): > 100 µM | TGI (SW-620 colon): > 100 µM | TGI (LXFL 529 NSCLC): > 100 µM | TGI (NCI-H23 lung): > 100 µM | TGI (SNB-75 CNS): > 100 µM | TGI (SK-MEL-5 melanoma): > 100 µM | TGI (786-0 renal): > 100 µM | TGI (SK-OV-3 ovarian): > 100 µM | TGI (RPMI-8226 leukemia): > 100 µM | TGI (HL-60(TB) leukemia): > 100 µM | TGI (SF-295 CNS): > 100 µM | TGI (CCRF-CEM leukemia): > 100 µM | TGI (OVCAR-3 ovarian): > 100 µM | TGI (SK-MEL-2 melanoma): > 100 µM | TGI (KM20L2 colon): > 100 µM | TGI (KM12 colon): > 100 µM | TGI (UACC-62 melanoma): > 100 µM | TGI (M14 melanoma): > 100 µM | TGI (NCI-H522 lung): > 100 µM | TGI (EKVX NSCLC): > 100 µM | TGI (COLO 205 colon): > 100 µM | TGI (A549 NSCLC): > 100 µM | TGI (RXF-631 renal): > 100 µM | TGI (OVCAR-5 ovarian): > 100 µM | TGI (NCI-H460 lung): > 100 µM | TGI (DMS 114 small cell lung): > 100 µM | TGI (SNB-19 CNS): > 100 µM | TGI (SN12C renal): > 100 µM | TGI (UO-31 renal): > 100 µM | TGI (IGROV1 ovarian): > 100 µM | TGI (HCT-15 colon): > 100 µM | TGI (HCC-2998 colon): > 100 µM | TGI (M19-MEL melanoma): > 100 µM | TGI (RXF 393 renal): > 100 µM | TGI (OVCAR-8 ovarian): > 100 µM | TGI (A498 renal): > 100 µM | TGI (NCI-H226 lung): > 100 µM | TGI (ACHN renal): > 100 µM | TGI (SK-MEL-28 melanoma): > 100 µM | TGI (CAKI-1 renal): > 100 µM | TGI (K-562 leukemia): > 100 µM | TGI (LOX IMVI melanoma): > 100 µM | TGI (DMS 273 small cell lung): > 100 µM | TGI (OVCAR-4 ovarian): > 100 µM | TGI (HOP-62 NSCLC): > 100 µM

Source: PubChem BioAssay (NCI)
